Data reported in PMC7460559 (International Journal of Molecular Sciences, 2020).
Values after ≈ are worked out from the molar mass of the structure shown. Residues, ends and D or L forms follow the SMILES beside them. No end group written: not given here.

Experiments:
S. aureus ATCC 25923 = assay: Resistance development assay; format: cell-based, Staphylococcus aureus; settings: S. aureus ATCC 25923, 12 passages from 1/2 MIC well, DMEM supplemented with 10% fetal bovine serum, MICs in duplicate
Description: Daily MICs were determined over 15 days for each agent using cells collected from the well determined as having half the MIC (1/2 MIC well). Briefly, cells from the 1/2 MIC well from the preceding day’s assay plate were resuspended and the OD600 was measured. The suspensions were then adjusted to achieve a bacterial concentration of 5 × 10^5 cfu/mL in DMEM supplemented with 10% fetal bovine serum and then mixed with each agent at the appropriate concentration. All MICs were determined in duplicate [26].

[1] = tested on: S. typhimurium CCARM 8013; assay: MIC assay, drug-resistant strain; format: cell-based; settings: Salmonella enterica, peptides in DMEM supplemented with 10% FBS
Text: (§1) Escherichia coli (ATCC 25922) and S. aureus (ATCC 25923) were obtained from American Type Culture Collection (Manassas, VA, USA). Escherichia coli CCARM 1229, E. coli CCARM 1238, S. aureus CCARM 3089, S. aureus 3114, Salmonella typhimurium CCARM 8009, and S. typhimurium CCARM 8013 were obtained from the culture collection of antibiotic-resistant microbes at Seoul Women’s University, Republic of Korea. Pseudomonas aeruginosa 3547 and P. aeruginosa 4007 were resistant strains isolated from hospital patients with otitis media at Chonnam National University, Republic of Korea. The rifampin-resistant S. aureus PBEL 1 and vancomycin-resistant S. aureus PBEL 2 strains used in this study were generated from wild-type S. aureus (ATCC 25923).
(§2) Bacterial cells were incubated within culture media at 37 °C. The peptide antimicrobial activity was determined by the minimal inhibition concentration (MIC) assay. […] The samples were incubated for 18–24 h at 37 °C. After incubation, the minimum inhibitory concentrations (MICs) of the peptides were determined by measuring the absorbance at an optical density of 600 nm (OD600).

[2] = tested on: S. typhimurium CCARM 8009; assay: MIC assay, drug-resistant strain; format: cell-based; settings: Salmonella enterica, peptides in DMEM supplemented with 10% FBS
Text: as §1, §2

S. aureus CCARM 3089 = assay: MIC assay, drug-resistant strain; format: cell-based; settings: Staphylococcus aureus, CCARM3089, peptides in DMEM supplemented with 10% FBS
Text: as §1, §2

S. aureus CCARM 3114 = assay: MIC assay, drug-resistant strain; format: cell-based; settings: Staphylococcus aureus, CCARM3114, peptides in DMEM supplemented with 10% FBS
Text: as §1, §2

S. aureus PBEL 1 = assay: MIC assay, drug-resistant strain; format: cell-based; settings: Staphylococcus aureus, PBEL1; S. aureus PBEL 1, rifampin-resistant (induced); peptides in DMEM supplemented with 10% FBS
Text: as §1, §2

S. aureus PBEL 2 = assay: MIC assay, drug-resistant strain; format: cell-based; settings: Staphylococcus aureus, PBEL2; S. aureus PBEL 2, vancomycin-resistant (induced); peptides in DMEM supplemented with 10% FBS
Text: as §1, §2

P. aeruginosa 4007 = assay: MIC assay, drug-resistant strain; format: cell-based; settings: Pseudomonas aeruginosa; P. aeruginosa 4007, resistant isolate from otitis media patients; peptides in DMEM supplemented with 10% FBS
Text: as §1, §2

P. aeruginosa 3547 = assay: MIC assay, drug-resistant strain; format: cell-based; settings: Pseudomonas aeruginosa; P. aeruginosa 3547, resistant isolate from otitis media patients; peptides in DMEM supplemented with 10% FBS
Text: as §1, §2

[3] = tested on: HaCa T (human keratinocyte) cells; settings: at 250 μM; cited from earlier work
Description: (§3) Previously, we determined the properties of HPA3NT3 as an antimicrobial peptide. This peptide has an amphipathic helical structure, strong antimicrobial activity, and cytotoxic ability at 250 μM (sheep RBCs, 68.4%; HaCaT cells, 85.1%). This peptide was designed to have low cytotoxicity at higher concentrations and was generated by substituting phenylalanine with alanine and lysine (F1A, F8A, and N13K) to enhance its antimicrobial activity by increasing the net positive charge.

[4] = tested on: sheep red blood cells (sheep RBCs); settings: at 250 μM; cited from earlier work
Description: as §3

[5] = Reverse-phase HPLC retention time (hydrophobicity); format: physicochemical; settings: mean retention time, Jupiter proteo C18 column (250 × 4.6 mm, 90 Å, 4 μm), 280 nm, used by the paper as measure of hydrophobicity
Description: Peptides were synthesized by using a 9-fluorenylmethoxycarbonyl (Fmoc) solid-phase method on Rink amide 4-methyl benzhydrylamine resin (Novabiochem, Darmstadt, Germany) (0.55 mmol/g) using a Liberty microwave peptide synthesizer (CEM, Matthews, NC, USA). To generate N-terminal fluorescently-labeled peptides, resin-bound peptides were treated with 20% (v/v) piperidine in dimethylformamide (DMF) to remove the Fmoc protection groups from the N-terminal amino acids. Rhodamine-SE dye was incubated with resin-bound peptide in DMF (3–4 eq.) containing 5% (v/v) diisopropylethylamine, and gently mixing for 24 h at room temperature in the dark. The resin was washed with dichloromethane (DCM). The peptides were cleaved from the corresponding resins, precipitated with ether, and extracted. The crude peptides were purified by reverse-phase preparative high-performance liquid chromatography (HPLC) on a Jupiter C18 column (250 × 21.2 mm, […], 300 Å; Phenomenex, Torrance, CA, USA) using a 0–60% acetonitrile gradient in water with 0.05% trifluoroacetic acid. The purity of the extracted peptide was then determined by analytical reversed-phase HPLC (wavelength of 280 nm) using a Jupiter proteo C18 column (250 × 4.6 mm, 90 Å, 4 μm). The molecular masses of the peptides were confirmed on a matrix-assisted laser desorption ionization mass spectrometer (Kratos Analytical, Kyoto, Japan).

[6] = tested on: PC/SM (2:1, w/w) small unilamellar vesicle (SUV) liposomes; assay: Binding assay with SUV liposomes by CD; settings: 50 μM peptide, 300 μM SUVs, 10 mM HEPES buffer (pH 7.4), 25 °C, n = 3
Description: (§4) SUVs were prepared by drying of phosphatidylethanolamine (PE)/phosphatidyl glycerol (PG) (7:3, w/w) or phosphatidylcholine (PC)/sphingomyelin (SM) (2:1, w/w) under nitrogen, suspension by vortex mixing in 10 mM HEPES buffer (pH 7.4), and sonication. To prepare the SUVs, the lipid diffusions were sonicated in a bath-type sonicator for 20 min. Next, the suspensions of preparation vesicles were extruded 10 times through polycarbonate membranes ([…] pores). The concentration of SUV liposomes was determined using a standard phosphate assay. Circular dichroism (CD) spectra were recorded at 25 °C on a Jasco 810 spectropolarimeter. The peptide (50 μM) solution was added to 400 μL of 10 mM HEPES buffer or to 300 μM SUVs. At least three scans were acquired at 250 to 190 nm.

[7] = tested on: PE/PG (7:3, w/w) small unilamellar vesicle (SUV) liposomes; assay: Binding assay with SUV liposomes by CD; settings: 50 μM peptide, 300 μM SUVs, 10 mM HEPES buffer (pH 7.4), 25 °C, n = 3
Description: as §4

E. coli CCARM 1229 = assay: MIC assay, drug-resistant strain; format: cell-based; settings: Escherichia coli, CCARM1229, peptides assayed in DMEM supplemented with 10% FBS
Text: as §1, §2

E. coli CCARM 1238 = assay: MIC assay, drug-resistant strain; format: cell-based; settings: Escherichia coli, CCARM1238, peptides assayed in DMEM supplemented with 10% FBS
Text: as §1, §2

[8] = tested on: sheep red blood cells (sheep RBCs); assay: Hemolysis; format: cell-based; settings: data overlapped with those of HPA3NT3-A2
Description: Fresh samples of sheep blood defibrinated cells (MBcell, Seoul, Korea) were centrifuged at 800× g and washed with phosphate-buffered saline (PBS) until the supernatant was clear. Serial dilutions (two-fold) of peptide prepared in PBS were plated, and sheep red blood cells (sheep RBCs) were added to a final concentration of 8% (v/v) in a 96-well plate. The samples were incubated for 1 h at 37 °C with gentle agitation and then centrifuged at 800× g for 10 min. The absorbance of the supernatant was measured at 414 nm; each measurement was performed in triplicate and the percentage hemolysis was calculated using Equation (1):% hemolysis = [(Abs414 in the peptide solution − Abs414 in PBS)/(Abs414 in 0.1% Triton-X100 − Abs414 in PBS)] × 100(1) where 100% hemolysis was defined as the absorbance of sheep RBCs containing 1% Triton X-100 and zero hemolysis was the value measured for sheep RBCs alone in PBS [10].

| Molecule | increase in MIC (resistance development) (S. aureus ATCC 25923) | MIC [1] [µM] | MIC [2] [µM] | MIC (S. aureus CCARM 3089) [µM] | MIC (S. aureus CCARM 3114) [µM] | MIC (S. aureus PBEL 1) [µM] | MIC (S. aureus PBEL 2) [µM] | MIC (P. aeruginosa 4007) [µM] | MIC (P. aeruginosa 3547) [µM] | Retention Time [5] [min] | interaction with PC/SM liposome (CD) [6] | interaction with PE/PG liposome (CD) [7] | further results |
| --- | --- | --- | --- | --- | --- | --- | --- | --- | --- | --- | --- | --- | --- |
| CO[C@H]1/C=C/O[C@@]2(C)Oc3c(C)c(O)c4c(O)c(c(/C=N/N5CCN(C)CC5)c(O)c4c3C2=O)NC(=O)/C(C)=C\C=C\[C@H](C)[C@H](O)[C@@H](C)[C@@H](O)[C@@H](C)[C@H](OC(C)=O)[C@@H]1C [rifampin] | 8192 fold | – | – | – | – | – | – | – | – | – | – | – | – |
| CC1(C)S[C@@H]2[C@H](NC(=O)[C@H](N)c3ccccc3)C(=O)N2[C@H]1C(=O)O [Amp, ampicillin] | – | > 512 | > 512 | > 512 | > 512 | > 512 | > 512 | > 512 | > 512 | – | – | – | – |
| FKRLKKLFKKIWNWK-NH2 [HPA3NT3] | – | – | – | – | – | – | – | – | – | 20.94 | strongest interaction and α-helical structure | strongest interaction and α-helical structure | toxicity against HaCaT cells [3]: 85.1%; hemolytic activity against sheep RBCs [4]: 68.4% |
| CC[C@H]1OC(=O)[C@H](C)[C@@H](O[C@H]2C[C@@](C)(OC)[C@@H](O)[C@H](C)O2)[C@H](C)[C@@H](O[C@@H]2O[C@H](C)C[C@H](N(C)C)[C@H]2O)[C@](C)(O)C[C@@H](C)C(=O)[C@H](C)[C@@H](O)[C@]1(C)O [Ery, erythromycin] | – | 128 (≈ 93.9 µg/mL) | 256 (≈ 188 µg/mL) | > 512 | > 512 | > 512 | > 512 | > 512 | > 512 | – | – | – | MIC (E. coli CCARM 1229): 256 µM (≈ 188 µg/mL); MIC (E. coli CCARM 1238): 256 µM (≈ 188 µg/mL) |
| O=C(O)c1cn(C2CC2)c2cc(N3CCNCC3)c(F)cc2c1=O [Cip, ciprofloxacin] | – | – | – | > 512 | > 512 | > 512 | > 512 | > 512 | > 512 | – | – | – | – |
| CC[C@H](C)[C@H](NC(=O)[C@@H](CCCCN)NC(=O)[C@@H](CCCCN)NC(=O)[C@H](C)NC(=O)[C@H](CC(C)C)NC(=O)[C@@H](CCCCN)NC(=O)[C@@H](CCCCN)NC(=O)[C@H](CC(C)C)NC(=O)[C@H](CCCNC(=N)N)NC(=O)[C@@H](CCCCN)NC(=O)[C@H](C)N)C(=O)N[C@@H](Cc1c[nH]c2ccccc12)C(=O)N[C@H](CCCCN)C(=O)N[C@@H](Cc1c[nH]c2ccccc12)C(=O)N[C@H](CCCCN)C(N)=O [HPA3NT3-A2D] (HELM PEPTIDE1{A.[dK].R.L.[dK].[dK].L.A.[dK].[dK].I.W.[dK].W.[dK].[am]}$$$$V2.0; N-terminus assumed) | no change in the MIC | – | – | – | – | – | – | – | – | 11.97 | low levels of α-helical structures | low levels of α-helical structures | hemolysis against sheep RBCs (in words) [8]: non-hemolysis |
